Measured values reported in patent US10512607B2, “Polymeric particles, method for cytosolic delivery of cargo, methods of making the particles” (University of Florida Research Foundation, Inc., priority 2015, dated 2019).

Columns and labels:
dendritic cells (DCs) = experiment: Calcein release from endosomal vesicles in dendritic cells; format: cell-based, mouse; settings: 2 h at 37° C.
Protocol: DCs were isolated from mouse bone marrow tissues as previously described in Lewis et al. according to the guidelines set forth by the University of Florida Institutional Animal Care and Use Committee.
DCs were plated in 35 mm glass bottom culture dishes at a density of 5×10^4 cells in DC culture medium [DMEM:F12 1:1 (GE Healthcare Life Sciences), 10% fetal bovine serum, 1 mM sodium pyruvate, nonessential amino acids, penicillin-streptomycin, and 20 ng/mL GM-CSF (R&D systems)]. […] As a positive control, a portion of DCs were treated with the membrane permeable Acetoxymethyl ester of calcein (5 μM). Following treatment, cells were washed four times with phosphate buffered saline. New culture medium was added and the cells were imaged with a fluorescent microscope (Axiovert 200M microscope (Carl Zeiss, Oberkochen, Germany) using excitation/emission wavelengths of 495/515 nm at 200-fold magnification.
Images were analyzed by measuring the area of fluorescence per channel (green vs bright field). The values are reported as % relative fluorescence intensity per cell (RFI/cell).

[1] = tested on: Chinese hamster ovary (CHO-K1) cells; experiment: CytoTox96 LDH cytotoxicity assay; format: cell-based; settings: positive control for toxicity
Protocol: Chinese hamster ovary (CHO-K1) cells were grown in Ham's F12 medium (Mediatech) containing 10% fetal bovine serum (FBS, Hyclone), penicillin (100 units/mL), and streptomycin (100 μg/mL) at 37° C. in a humidified incubator with 5% CO2 [30]. Cell viability was determined via Trypan blue exclusion and was 97% with each passage.
Toxicity of MPs was determined employing CytoTox96 Non-radioactive Cytotoxity Assay (Promega). CHO cells were plated at a density of 10,000 cells per well in a 96 well tissue culture plate in 200 μL of cell culture medium. Cells were maintained at 37° C. in a humidified incubator in a 5% CO2 atmosphere. MPs were added at a ratio of 5, 10, 20, 30, 40, and 50 particles/cell and incubated at 37° C. for 24 h. The culture medium was transferred into wells of a clear bottom 96 well plate. Cells treated with 0.1% Triton X-100 were used as a positive control for 100% toxicity and cell culture medium alone was used for background subtraction for baseline lactate dehydrogenase (LDH) activity (background control). The cell supernatants were incubated with the developing reagents for 30 min per the manufacturer's instructions. The optical density of the developed color was determined by measuring absorbance at 490 nm. […]

Row | Molecule | cytosolic distribution of calcein (fluorescent area over cell area) (dendritic cells (DCs)) | LDH release relative to basal background LDH activity in media without cells [1] [fold]
1 | O=C(O)CN(CC(=O)O)Cc1cc2c(cc1O)Oc1cc(O)c(CN(CC(=O)O)CC(=O)O)cc1C21OC(=O)c2ccccc21 [calcein alone] | less than 10% | –
2 | Acetoxymethyl ester of calcein [calcein AM] | ~95% | –
3 | Triton X-100 | – | 21
